# Patent US11472788B2, “Benzoimidazoles as selective inhibitors of indoleamine 2,3-dioxygenases” (BEIGENE, LTD., priority 2017, dated 2022)
# Key:
# [1] = target: cellular IDO1 in HeLa cells (Homo sapiens (Human), UniProt P14902); assay: HeLa Cell-Based IDO1 Kyn (Kynurenine) Production Assay; details: IFN-γ induced IDO1, 48 hours incubation, Kyn absorbance at 480 nm
# Method in brief: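 Compounds added to HeLa cells together with IFN-γ (100 ng/mL final) and 0.4 mM L-Trp, 48 h at 37 °C. Kynurenine in TCA-deproteinized supernatant measured colorimetrically with 4-(dimethylamino)benzaldehyde at 480 nm; IC50 from four-parameter logistic fit.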
# [2] = target: Recombinant IDO1 (Homo sapiens (Human), UniProt P14902); assay: IDO1 enzymatic assay; type: biochemical; details: 50 nM IDO1, 1.3 mM D-tryptophan, pH 7.5, read-out: Enzyme assay IC50
# Chain of Recombinant IDO1 (P14902 whole entry, species assumed): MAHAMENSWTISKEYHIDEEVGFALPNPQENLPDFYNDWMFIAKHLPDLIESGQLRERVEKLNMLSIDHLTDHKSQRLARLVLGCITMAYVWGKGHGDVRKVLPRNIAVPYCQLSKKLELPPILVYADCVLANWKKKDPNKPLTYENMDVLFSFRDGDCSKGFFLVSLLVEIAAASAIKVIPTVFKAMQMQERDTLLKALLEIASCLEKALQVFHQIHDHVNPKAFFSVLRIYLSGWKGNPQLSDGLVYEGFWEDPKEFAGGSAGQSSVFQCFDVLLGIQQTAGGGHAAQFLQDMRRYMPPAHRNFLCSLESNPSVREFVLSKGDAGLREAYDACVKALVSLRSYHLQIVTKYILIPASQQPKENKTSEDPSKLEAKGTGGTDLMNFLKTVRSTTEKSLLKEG
# Experimental: Recombinant IDO1 was overexpressed and purified from E. coli cells with an N-terminal His tag. IDO1 enzymatic assay was carried out using a methodology similar to described in the literature (J. Biol. Chem. (1980), 255, 1339-1345). The reaction mixture contains 50 nM IDO1, 1.3 mM D-tryptophan, 5 mM L-ascorbic acid, […] methylene Blue, 0.4 mg/mL catalase and compound (or DMSO) in a buffer containing 50 mM potassium phosphate pH 7.5 and 0.1% BSA. After incubation at 24° C. for 1.5 hours, absorbance of the reaction mixture was continuously read at 321 nm to monitor the formation of N′-formylkynurenine by a FULOstar OMEGA plate reader (BMG LABTECH) for 1 hour. The enzymatic activity was determined by measuring the slope of the linear absorbance increase as a function of time. The IC50s are calculated based on remaining enzyme activity in the presence of increasing concentrations of compounds.
# Chain of cellular IDO1 in HeLa cells (P14902 whole entry): as the sequence (P14902 whole entry, species assumed) above
Compound,EC50 [1],IC50 [2]
"4-((1s,4s)-4-((5-chloro-1H-benzo[d]imidazol-2-yl)methyl)cyclohexyl)-6-fluoroquinoline [Example A1b]",8 nM,> 10000 nM
"Fc1ccc2nccc(C3CCC(Cc4nc5cc(Cl)ccc5[nH]4)CC3)c2c1 (stereo not drawn) [Example A1a, 4-(4-((5-chloro-1H-benzo[d]imidazol-2-yl)methyl)cyclohexyl)-6-fluoroquinoline]",51 nM,> 10000 nM
"Cc1ccc2[nH]c(C[C@H]3CC[C@H](c4ccnc5ccc(F)cc54)CC3)nc2c1 [Example A2a, 6-fluoro-4-((1r,4r)-4-((5-methyl-1H-benzo[d]imidazol-2-yl)methyl)cyclohexyl)quinoline]",241 nM,> 10000 nM
"Cc1ccc2[nH]c(C[C@H]3CC[C@@H](c4ccnc5ccc(F)cc54)CC3)nc2c1 [Example A2b, 6-fluoro-4-((1s,4s)-4-((5-methyl-1H-benzo[d]imidazol-2-yl)methyl)cyclohexyl)quinoline]",53 nM,> 10000 nM
"Fc1ccc2nccc([C@H]3CC[C@H](Cc4nc5cc(C6CC6)ccc5[nH]4)CC3)c2c1 [Example A4a, 4-((1r,4r)-4-((5-cyclopropyl-1H-benzo[d]imidazol-2-yl)methyl)cyclohexyl)-6-fluoroquinoline]",131 nM,> 10000 nM
"Fc1ccc2nccc([C@H]3CC[C@@H](Cc4nc5cc(C6CC6)ccc5[nH]4)CC3)c2c1 [Example A4b, 4-((1s,4s)-4-((5-cyclopropyl-1H-benzo[d]imidazol-2-yl)methyl)cyclohexyl)-6-fluoroquinoline]",13 nM,> 10000 nM
"Fc1ccc2nccc([C@H]3CC[C@H](Cc4nc5cc(F)c(F)cc5[nH]4)CC3)c2c1 [Example A6a, 4-((1r,4r)-4-((5,6-difluoro-1H-benzo[d]imidazol-2-yl)methyl)cyclohexyl)-6-fluoroquinoline]",141 nM,> 10000 nM
"Fc1ccc2nccc([C@H]3CC[C@@H](Cc4nc5cc(F)c(F)cc5[nH]4)CC3)c2c1 [Example A6b, 4-((1s,4s)-4-((5,6-difluoro-1H-benzo[d]imidazol-2-yl)methyl)cyclohexyl)-6-fluoroquinoline]",14 nM,> 10000 nM
"Cc1cc2nc(C[C@H]3CC[C@H](c4ccnc5ccc(F)cc54)CC3)[nH]c2cc1C [Example A9a, 4-((1r,4r)-4-((5,6-dimethyl-1H-benzo[d]imidazol-2-yl)methyl)cyclohexyl)-6-fluoroquinoline]",186 nM,> 10000 nM
"Cc1cc2nc(C[C@H]3CC[C@@H](c4ccnc5ccc(F)cc54)CC3)[nH]c2cc1C [Example A9b, 4-((1s,4s)-4-((5,6-dimethyl-1H-benzo[d]imidazol-2-yl)methyl)cyclohexyl)-6-fluoroquinoline]",24 nM,> 10000 nM
"Clc1ccc2[nH]c(C[C@H]3CC[C@H](c4ccnc5ccccc54)CC3)nc2c1 [Example A10a, 4-((1r,4r)-4-((5-chloro-1H-benzo[d]imidazol-2-yl)methyl)cyclohexyl)quinoline]",91 nM,> 10000 nM
"COC(=O)c1cccc2[nH]c([C@H](C)[C@H]3CC[C@@H](c4ccnc5ccc(F)cc54)CC3)nc12 [Example B210, methyl 2-((R)-1-((1s,4S)-4-(6-fluoroquinolin-4-yl)cyclohexyl)ethyl)-1H-benzo[d]imidazole-4-carboxylate]",26.6 nM,
"C[C@H](c1nc2c(ccc3ccccc32)[nH]1)[C@H]1CC[C@@H](c2ccnc3ccc(F)cc32)CC1 [Example B211, 2-((S)-1-((1s,4R)-4-(6-fluoroquinolin-4-yl)cyclohexyl)ethyl)-3H-naphtho[1,2-d]imidazole]",1.3 nM,
"C[C@@H](c1nc2c(ccc3ccccc32)[nH]1)[C@H]1CC[C@H](c2ccnc3ccc(F)cc32)CC1 [Example B212, 2-((R)-1-((1r,4R)-4-(6-fluoroquinolin-4-yl)cyclohexyl)ethyl)-3H-naphtho[1,2-d]imidazole]",27.9 nM,
"COCCNC(=O)c1ccc2[nH]c(C(C)[C@H]3CC[C@@H](c4ccnc5ccc(F)cc54)CC3)nc2c1 (stereo partly drawn) [Example B216, 2-(1-((1s,4s)-4-(6-fluoroquinolin-4-yl)cyclohexyl)ethyl)-N-(2-methoxyethyl)-1H-benzo[d]imidazole-5-carboxamide]",62.9 nM,
Cc1noc(-c2ccc3[nH]c(C(C)[C@H]4CC[C@@H](c5ccnc6ccc(F)cc65)CC4)nc3c2)n1 (stereo partly drawn) [Example B217],1.2 nM,
"Cc1noc(-c2ccc3nc([C@H](C)[C@H]4CC[C@@H](c5ccnc6ccc(F)cc65)CC4)[nH]c3c2)n1 [Example B220, 5-(2-((R)-1-((1s,4S)-4-(6-fluoroquinolin-4-yl)cyclohexyl)ethyl)-1H-benzo[d]imidazol-6-yl)-3-methyl-1,2,4-oxadiazole]",0.96 nM,

Compound,EC50 [1],IC50 [2]
"Fc1ccc2nccc([C@H]3CC[C@H](c4nc5cc(Cl)ccc5[nH]4)CC3)c2c1 [Example C2a, 4-((1r,4r)-4-(5-chloro-1H-benzo[d]imidazol-2-yl)cyclohexyl)-6-fluoroquinoline]",74 nM,
"Fc1ccc2nccc([C@H]3CC[C@@H](c4nc5cc(Cl)ccc5[nH]4)CC3)c2c1 [Example C2b, 4-((1s,4s)-4-(5-chloro-1H-benzo[d]imidazol-2-yl)cyclohexyl)-6-fluoroquinoline]",11 nM,
"Cc1ccc2[nH]c(C3CCC(c4ccnc5ccc(F)cc45)CC3)nc2c1 (stereo not drawn) [Example C3, 6-fluoro-4-(4-(5-methyl-1H-benzo[d]imidazol-2-yl)cyclohexyl)quinoline]",16 nM,
"Fc1ccc2nccc(C3CCC(c4nc5cc(Br)ccc5[nH]4)CC3)c2c1 (stereo not drawn) [Example C4, 4-(4-(5-bromo-1H-benzo[d]imidazol-2-yl)cyclohexyl)-6-fluoroquinoline]",9.1 nM,
"Fc1ccc2[nH]c([C@H]3CC[C@H](c4ccnc5ccc(F)cc54)CC3)nc2c1 [Example C5a, 6-fluoro-4-((1r,4r)-4-(5-fluoro-1H-benzo[d]imidazol-2-yl)cyclohexyl)quinoline]",1430 nM,
"Fc1ccc2[nH]c([C@H]3CC[C@@H](c4ccnc5ccc(F)cc54)CC3)nc2c1 [Example C5b, 6-fluoro-4-((1s,4s)-4-(5-fluoro-1H-benzo[d]imidazol-2-yl)cyclohexyl)quinoline]",73 nM,
"Fc1ccc2nccc([C@H]3CC[C@@H](c4nc5cc(C6CC6)ccc5[nH]4)CC3)c2c1 [Example C6b, 4-((1s,4s)-4-(5-cyclopropyl-1H-benzo[d]imidazol-2-yl)cyclohexyl)-6-fluoroquinoline]",14 nM,
"Fc1ccc2nccc([C@H]3CC[C@H](c4nc5cc(F)c(F)cc5[nH]4)CC3)c2c1 [Example C7a, 4-((1r,4r)-4-(5,6-difluoro-1H-benzo[d]imidazol-2-yl)cyclohexyl)-6-fluoroquinoline]",1360 nM,
"Fc1ccc2nccc([C@H]3CC[C@@H](c4nc5cc(F)c(F)cc5[nH]4)CC3)c2c1 [Example C7b, 4-((1s,4s)-4-(5,6-difluoro-H-benzo[d]imidazol-2-yl)cyclohexyl)-6-fluoroquinoline]",70 nM,
"COC(=O)c1ccc2[nH]c([C@H]3CC[C@H](c4ccnc5ccc(F)cc54)CC3)nc2c1 [Example C8a, methyl 2-((1r,4r)-4-(6-fluoroquinolin-4-yl)cyclohexyl)-1H-benzo[d]imidazole-5-carboxylate]",1200 nM,
"COC(=O)c1ccc2[nH]c([C@H]3CC[C@@H](c4ccnc5ccc(F)cc54)CC3)nc2c1 [Example C8b, methyl 2-((1s,4s)-4-(6-fluoroquinolin-4-yl)cyclohexyl)-1H-benzo[d]imidazole-5-carboxylate]",37 nM,
"NC(=O)c1ccc2[nH]c([C@H]3CC[C@H](c4ccnc5ccc(F)cc54)CC3)nc2c1 [Example C9a, 2-((1r,4r)-4-(6-fluoroquinolin-4-yl)cyclohexyl)-1H-benzo[d]imidazole-5-carboxamide]",> 10000 nM,
"NC(=O)c1ccc2[nH]c([C@H]3CC[C@@H](c4ccnc5ccc(F)cc54)CC3)nc2c1 [Example C9b, 2-((1s,4s)-4-(6-fluoroquinolin-4-yl)cyclohexyl)-1H-benzo[d]imidazole-5-carboxamide]",1240 nM,
"Fc1ccc2nccc(C3CCC(CCc4nc5cc(C6CC6)ccc5[nH]4)CC3)c2c1 (stereo not drawn) [Example C10, 4-(4-(2-(5-cyclopropyl-1H-benzo[d]imidazol-2-yl)ethyl)cyclohexyl)-6-fluoroquinoline]",7 nM,
"Fc1ccc2nccc([C@H]3CC[C@@H](CCc4nc5cc(Cl)ccc5[nH]4)CC3)c2c1 [Example C11, 4-((1r,4r)-4-(2-(5-chloro-1H-benzo[d]imidazol-2-yl)ethyl)cyclohexyl)-6-fluoroquinoline]",12 nM,
"Clc1ccc2nc(C3CC4CC3CC4c3ccccc3)[nH]c2c1 (stereo not drawn) [Example D1, 6-chloro-2-(5-phenylbicyclo[2.2.1]heptan-2-yl)-1H-benzo[d]imidazole]",1090 nM,
"Clc1ccc2[nH]c(CCC3CC4CC3CC4c3ccccc3)nc2c1 (stereo not drawn) [Example D2, 5-chloro-2-(2-(5-phenylbicyclo[2.2.1]heptan-2-yl)ethyl)-1H-benzo[d]imidazole]",69 nM,
